In one test the test system is CgLAO. The class given is biochemical, Infundibulicybe geotropa.
In a further test the test system is CgmycLAO. The class given is biochemical, Infundibulicybe geotropa.

In general, Km refers to the concentration of substrate that gives half-maximal velocity. On to `CC(C)C[C@H](N)C(=O)O` [L-Leu], for which the Km in the test on CgLAO came to 550 ± 60 µM; in the test with CgmycLAO, 1520 ± 60 µM.
